Source: article PMC5629628, “The development of activatable lytic peptides for targeting triple negative breast cancer” (Cell Death Discovery, 2017)
Like-named read-outs stand apart in the source and are kept apart here. Non-standard residues stand in square brackets, D forms with d. Residues, ends and D or L forms follow the SMILES beside them. Aib = CC(C)(N)C(=O)O; Ahx = NCCCCCC(=O)O; βAla = NCCC(=O)O

Key:
MDA-MB-231 [1] = assay: MTT cell viability, MDA-MB-231; assay type: cell-based, human; conditions: for IC50: 5% FBS medium, 310 K, mean (standard deviation)
MCF-7 = conditions: read-out: IC50 (μM), MCF-7; MTT assay, 24 h treatment, 5% FBS medium, 310 K; mean (standard deviation)
Description: (§1) 100 μl of 4×10^4/ml cell suspension (MDA-MB-231, MCF-7, HeLa, SK-OV-3) was placed in each well of the 96-well culture plate and allowed to grow in dulbecco's modified eagle medium or Leibovitz medium (L-15) supplemented with 10% fetal bovine serum overnight. The cells were incubated with serial dilution of compounds at 310 K in 5% fetal bovine serum containing media for 24 h supplied with 5% CO2. At the end of the compounds exposure, 20 μl of 3-(4,5-dimethyl-2-thiazolyl)-2,5-diphenyl-2-H-tetrazolium bromide reagent was added and incubated at 310 K for 4 h. The absorbance of formazan product was measured at 490 nm by a microplate reader (PerkinElmer, Waltham, MA, USA). Cells without peptide were treated as control. *P<0.05, **P<0.01, ***P<0.001 compared with vehicle-treated cells. In Z-VAD-FMK assays, *P<0.05, **P<0.01, ***P<0.001 compared with cells without treatment of Z-VAD-FMK.

HeLa = conditions: read-out: IC50 (μM), HeLa; MTT assay, 24 h treatment, 5% FBS medium, 310 K; mean (standard deviation)
Description: as §1

SK-OV-3 = conditions: read-out: IC50 (μM), SK-OV-3; MTT assay, 24 h treatment, 5% FBS medium, 310 K; mean (standard deviation)
Description: as §1

mouse red blood cells = assay: Haemolytic activity; assay type: cell-based
Description: Fresh mouse red blood cells were collected and centrifuged at 800 rpm for 5 min. The erythrocytes were washed and re suspended in 0.9% NaCl to 10^8/ml. A serial dilution of peptides were added and incubate at 310 K. After 1 h incubation, erythrocytes were centrifuged and the release of hemoglobin was monitored by measuring the absorbance of supernatant at 570 nm by a microplate reader (PerkinElmer).

MDA-MB-231 [2] = assay: Cell viability with or without caspase inhibitor Z-VAD-FMK; assay type: cell-based, human
MDA-MB-231 tumour = assay: In vivo fluorescence imaging and tissue distribution; set-up: species or system mice; conditions: Cy5-labelled peptides, n=2; for tumour accumulation (in vivo fluorescence imaging): 100 μl 50 μM, tail vein, MDA-MB-231 tumour-bearing mice
Description: Four-week-old nude mice were purchased from the Vital River (Beijing, China) and allowed to grow for further two weeks. Approximately 1×10^6 MDA-MB-231 cells were injected into the mammary fat pads of female mice in a vehicle of 4 mg/ml Matrigel (Becton Dickinson and Co., New York, NY, USA). One week later, mice bearing tumours around 50 mm^3 in volume were randomly divided into groups for subsequent experiments.
For optical imaging, mice were anesthetized with isoflurane. Cy5-labelled peptides were injected intravenously at a dose of 100 μl, 50 μM. At each time point, mice were again anesthetized and imaged using IVIS Spectrum Pre-clinical In Vivo Imaging System (640 nm/680 nm). Fluorescence in manually set regions of interest was quantified by Living Image. The contrast ratio was calculated by dividing the tumour fluorescence by the chest and abdomen fluorescence.

kidney = assay: Chronic renal toxicity, kidney haematoxylin-eosin staining; assay type: in vivo, mice; conditions: 20 mg/kg i.v. every other day over 2 weeks
Description: (§2) In acute toxicity studies, 12 mice were divided into four groups (n=3 for each group) and administered via intravenous injection with peptide (e8-Uk14, e7-Ur11) at the dose of 20 or 40 mg/kg. In chronic renal toxicity studies, mice were administered via intravenous injection with peptide (e8-Uk14, e7-Ur11) at the dose of 20 mg/kg every other day over a periods of 2 weeks.

HEK293T = assay: Cell viability, non-tumourigenic HEK293T; assay type: cell-based; conditions: 24 h treatment
nude mice = assay: Acute toxicity in mice; assay type: in vivo; conditions: 40 mg/kg (200 μl, 4 mg/ml) intravenous, n=3 per group
Description: as §2

[3] = organs excised 6 h after injection
[4] = mouse red blood cells 10^8/ml in 0.9% NaCl, 1 h, 310 K, absorbance 570 nm

CC(=O)N[C@H](Cc1c[nH]c2ccccc12)C(=O)NCCC(=O)N[C@H](CCCCN)C(=O)N[C@H](CC(C)C)C(=O)NC(C)(C)C(=O)N[C@H](CCCCN)C(=O)N[C@H](CCCCN)C(=O)N[C@H](CC(C)C)C(=O)NC(C)(C)C(=O)N[C@H](CCCCN)C(=O)N[C@H](CC(C)C)C(=O)NC(C)(C)C(=O)N[C@H](CCCCN)C(N)=O [Uk11] (Ac-[dW][βAla][dK][dL][Aib][dK][dK][dL][Aib][dK][dL][Aib][dK]-NH2) was tested, and the “cytotoxic activity towards MDA-MB-231 cells (in words)” value (MDA-MB-231 [1]; MTT assay, 24 h treatment) was “decreased efficiency”.

Work on CC(=O)N[C@H](Cc1c[nH]c2ccccc12)C(=O)NCCC(=O)N[C@H](CCCCN)C(=O)N[C@H](CC(C)C)C(=O)NC(C)(C)C(=O)N[C@H](CCCCN)C(=O)N[C@H](CC(C)C)C(=O)NC(C)(C)C(=O)N[C@H](CCCCN)C(=O)N[C@H](CCCCN)C(=O)N[C@H](CC(C)C)C(=O)NC(C)(C)C(=O)N[C@H](CCCCN)C(=O)N[C@H](CC(C)C)C(=O)NC(C)(C)C(=O)N[C@H](CCCCN)C(N)=O [Uk14] (Ac-[dW][βAla][dK][dL][Aib][dK][dL][Aib][dK][dK][dL][Aib][dK][dL][Aib][dK]-NH2) yielded an IC50 (MCF-7) of 4.7 µM, an IC50 (HeLa) of 4.8 µM and an IC50 (SK-OV-3) of 5.1 µM. For the same compound, the haemolytic activity (mouse red blood cells) was “strong haemolytic activity”, the IC50 (MDA-MB-231 [1]; MTT assay, 24 h treatment) was 4.5 µM and the “effect of caspase inhibitor Z-VAD-FMK on cytotoxic effect” value (MDA-MB-231 [2]) was “did not block”.

In the case of CC(=O)N[C@H](Cc1c[nH]c2ccccc12)C(=O)NCCC(=O)N[C@H](CC(C)C)C(=O)NC(C)(C)C(=O)N[C@H](CCCNC(=N)N)C(=O)N[C@H](CCCNC(=N)N)C(=O)N[C@H](CC(C)C)C(=O)NC(C)(C)C(=O)N[C@H](CCCNC(=N)N)C(=O)N[C@H](CC(C)C)C(=O)NC(C)(C)C(=O)N[C@H](CCCNC(=N)N)C(N)=O [Ur10] (Ac-[dW][βAla][dL][Aib][dR][dR][dL][Aib][dR][dL][Aib][dR]-NH2), the “cytotoxic activity towards MDA-MB-231 cells (in words)” value (MDA-MB-231 [1]; MTT assay, 24 h treatment) is reported as “greatly diminished activity”.

Work on CC(=O)N[C@H](Cc1c[nH]c2ccccc12)C(=O)NCCC(=O)N[C@H](CCCNC(=N)N)C(=O)N[C@H](CC(C)C)C(=O)NC(C)(C)C(=O)N[C@H](CCCNC(=N)N)C(=O)N[C@H](CCCNC(=N)N)C(=O)N[C@H](CC(C)C)C(=O)NC(C)(C)C(=O)N[C@H](CCCNC(=N)N)C(=O)N[C@H](CC(C)C)C(=O)NC(C)(C)C(=O)N[C@H](CCCNC(=N)N)C(N)=O [Ur11] (Ac-[dW][βAla][dR][dL][Aib][dR][dR][dL][Aib][dR][dL][Aib][dR]-NH2) yielded an IC50 (MCF-7) of 5.6 µM, an IC50 (HeLa) of 5.9 µM and an IC50 (SK-OV-3) of 5.1 µM. The haemolytic activity (mouse red blood cells) was “strong haemolytic activity”, the “cytotoxic activity towards MDA-MB-231 cells (in words)” value (MDA-MB-231 [1]) was “no change in activity” and the IC50 (MDA-MB-231 [1]; MTT assay, 24 h treatment) was 8.9 µM. For the same compound, the “effect of caspase inhibitor Z-VAD-FMK on cytotoxic effect” value (MDA-MB-231 [2]) was “did not block”.

With CC(=O)N[C@H](Cc1c[nH]c2ccccc12)C(=O)NCCC(=O)N[C@H](CCCNC(=N)N)C(=O)N[C@H](CC(C)C)C(=O)NC(C)(C)C(=O)N[C@H](CCCNC(=N)N)C(=O)N[C@H](CC(C)C)C(=O)NC(C)(C)C(=O)N[C@H](CCCNC(=N)N)C(=O)N[C@H](CCCNC(=N)N)C(=O)N[C@H](CC(C)C)C(=O)NC(C)(C)C(=O)N[C@H](CCCNC(=N)N)C(=O)N[C@H](CC(C)C)C(=O)NC(C)(C)C(=O)N[C@H](CCCNC(=N)N)C(N)=O [Ur14] (Ac-[dW][βAla][dR][dL][Aib][dR][dL][Aib][dR][dR][dL][Aib][dR][dL][Aib][dR]-NH2) the “cytotoxic activity towards MDA-MB-231 cells (in words)” value (MDA-MB-231 [1]; MTT assay, 24 h treatment) was “no significant improvements”.

With CC(=O)N[C@H](Cc1c[nH]c2ccccc12)C(=O)NCCC(=O)N[C@H](CCCCN)C(=O)N[C@H](CC(C)C)C(=O)N[C@H](C)C(=O)N[C@H](CCCCN)C(=O)N[C@H](CC(C)C)C(=O)N[C@H](C)C(=O)N[C@H](CCCCN)C(=O)N[C@H](CCCCN)C(=O)N[C@H](CC(C)C)C(=O)N[C@H](C)C(=O)N[C@H](CCCCN)C(=O)N[C@H](CC(C)C)C(=O)N[C@H](C)C(=O)N[C@H](CCCCN)C(N)=O [ak14] the “cytotoxic activity towards MDA-MB-231 cells (in words)” value (MDA-MB-231 [1]; MTT assay, 24 h treatment) was “only moderate efficiency” and the IC50 (MDA-MB-231 [1]; MTT assay, 24 h treatment) was over 30 µM.

CC(=O)N[C@H](Cc1c[nH]c2ccccc12)C(=O)NCCC(=O)N[C@H](CCC(=O)O)C(=O)N[C@H](CCC(=O)O)C(=O)N[C@H](CCC(=O)O)C(=O)N[C@H](CCC(=O)O)C(=O)N[C@H](CCC(=O)O)C(=O)N[C@H](CCC(=O)O)C(=O)N[C@H](CCC(=O)O)C(=O)NCCCCCC(=O)N1CCC[C@H]1C(=O)N[C@@H](CC(C)C)C(=O)NCC(=O)N[C@@H](CC(C)C)C(=O)N[C@@H](C)C(=O)NCC(=O)N[C@H](CCCNC(=N)N)C(=O)N[C@H](CC(C)C)C(=O)NC(C)(C)C(=O)N[C@H](CCCNC(=N)N)C(=O)N[C@H](CCCNC(=N)N)C(=O)N[C@H](CC(C)C)C(=O)NC(C)(C)C(=O)N[C@H](CCCNC(=N)N)C(=O)N[C@H](CC(C)C)C(=O)NC(C)(C)C(=O)N[C@H](CCCNC(=N)N)C(N)=O [e7-Ur11] was tested, and the “tumour accumulation (in vivo fluorescence imaging)” value (MDA-MB-231 tumour) was “significantly higher accumulation in tumours compared to unmodified peptides”, the “uptake in excised tumour” value (MDA-MB-231 tumour; [3]) was “higher compared to UK14 and Ur11” and the haemolytic activity (mouse red blood cells; [4]) was “diminished membrane disruption and haemolysis”. For the same compound, the “kidney histology (haematoxylin-eosin staining)” value (kidney) was “bleeding was observed at the junction of renal”, the “cytotoxicity against non-tumourigenic HEK293T” value (HEK293T) was “no obvious cytotoxicity” and the “acute toxicity (survival)” value (nude mice) was “caused death (one in three survived)”.

For CC(=O)N[C@H](Cc1c[nH]c2ccccc12)C(=O)NCCC(=O)N[C@H](CCC(=O)O)C(=O)N[C@H](CCC(=O)O)C(=O)N[C@H](CCC(=O)O)C(=O)N[C@H](CCC(=O)O)C(=O)N[C@H](CCC(=O)O)C(=O)N[C@H](CCC(=O)O)C(=O)N[C@H](CCC(=O)O)C(=O)N[C@H](CCC(=O)O)C(=O)NCCCCCC(=O)N1CCC[C@H]1C(=O)N[C@@H](CC(C)C)C(=O)NCC(=O)N[C@@H](CC(C)C)C(=O)N[C@@H](C)C(=O)NCC(=O)N[C@H](CCCCN)C(=O)N[C@H](CC(C)C)C(=O)NC(C)(C)C(=O)N[C@H](CCCCN)C(=O)N[C@H](CC(C)C)C(=O)NC(C)(C)C(=O)N[C@H](CCCCN)C(=O)N[C@H](CCCCN)C(=O)N[C@H](CC(C)C)C(=O)NC(C)(C)C(=O)N[C@H](CCCCN)C(=O)N[C@H](CC(C)C)C(=O)NC(C)(C)C(=O)N[C@H](CCCCN)C(N)=O [e8-Uk14] (Ac-[dW][βAla][dE][dE][dE][dE][dE][dE][dE][dE][Ahx]PLGLAG[dK][dL][Aib][dK][dL][Aib][dK][dK][dL][Aib][dK][dL][Aib][dK]-NH2), the “tumour accumulation (in vivo fluorescence imaging)” value (MDA-MB-231 tumour) was “significantly higher accumulation in tumours compared to unmodified peptides”, the accumulation in kidney (MDA-MB-231 tumour; [3]) was “lower accumulation in the kidney” and the accumulation in liver (MDA-MB-231 tumour; [3]) was “higher accumulation in the liver”. The “uptake in excised tumour” value (MDA-MB-231 tumour; [3]) was “higher compared to UK14 and Ur11”, the haemolytic activity (mouse red blood cells; [4]) was “diminished membrane disruption and haemolysis” and the “cytotoxicity against non-tumourigenic HEK293T” value (HEK293T) was “no obvious cytotoxicity”. For the same compound, the “acute toxicity (survival)” value (nude mice) was “no acute toxicity”.

In the case of CC(=O)N[C@H](Cc1c[nH]c2ccccc12)C(=O)NCCC(=O)N[C@H](CC(C)C)C(=O)N[C@H](CC(C)C)C(=O)N[C@H](CC(C)C)C(=O)N[C@H](CC(C)C)C(=O)NC(C)(C)C(=O)NC(C)(C)C(=O)NC(C)(C)C(=O)NC(C)(C)C(=O)N[C@H](CCCCN)C(=O)N[C@H](CCCCN)C(=O)N[C@H](CCCCN)C(=O)N[C@H](CCCCN)C(=O)N[C@H](CCCCN)C(=O)N[C@H](CCCCN)C(N)=O [lUk] (Ac-[dW][βAla][dL][dL][dL][dL][Aib][Aib][Aib][Aib][dK][dK][dK][dK][dK][dK]-NH2), the “cytotoxic activity towards MDA-MB-231 cells (in words)” value (MDA-MB-231 [1]; MTT assay, 24 h treatment) is reported as “decreased efficiency”.
